The target of data set [1] is CD80/PD-L1 binding (recombinant human His-CD80 protein and PD-L1-Fc fusion protein) (Homo sapiens (Human), UniProt Q9NZQ7). As to the kind of experiment: In vitro inhibitory activity against CD80/PD-L1 binding (HTRF). As to conditions: read-out: IC50 for inhibiting CD80/PD-L1 binding in vitro. From the text:
In addition to PD-1, PD-L1 can also play an immune inhibition role by binding to CD80. Similarly, in vitro CD80/PD-L1 binding or binding inhibition test can also be conducted by homogeneous time-resolved fluorescence (HTRF). When the anti-hFc-Eu^3+ antibody and the anti-His-XL665 antibody are used to bind to the hFC tag fused to PD-L1 and the His tag fused to CD80 respectively, and after excitation with 320 nm laser, energy can be transferred from Eu element to XL665 fluorescein due to the binding of PD-L1 and CD80 to excite the XL665 fluorescein to emit light. When an inhibitor for inhibiting interaction of PD-L1 and CD80 is added, the binding of PD-L1 and CD80 is destroyed, causing a long distance between Eu and XL665. As a result, the energy cannot be transferred, and the XL665 fluorescein will not be excited.
The recombinant human CD80 protein with His tag (His-CD80 protein, Cat #: 10698-H08H-100) and the recombinant human PD-L1-Fc fusion protein (PD-L1-Fc fusion protein, Cat #: 10084-H02H-100) were purchased from Sino Biological Inc., anti-hFc-Eu^3+ antibody and anti-His-XL665 antibody were purchased from Cisbio, and other related reagents such as a diluent buffer (Diluent buffer 5 (Cat #: 62DL5DDC) and a detection buffer (PPI-European detection buffer, Cat #: 61DB9RDF) were purchased from Cisbio. Fluorescence detector Tecan (Spark 10M) was purchased from Tecan Company in Switzerland.
The experiment process was carried out according to the flow required in the operating manual of the test reagent (Invitrogen). The process was as follows: • (1) Experiment preparation: A test compound was diluted to different concentration gradients with the dilution buffer (the highest final concentration in a 20 μL final reaction system was 10 μM). The His-CD80 protein was diluted to 800 nM (the final concentration in the 20 final reaction system was 100 nM). The PD-L1-Fc fusion protein was diluted to 16 nM (the final concentration was 2 nM). The anti-His-XL665 antibody and the anti-hFc-Eu^3+antibody were diluted 20 times and 100 times respectively with the detection buffer according to reagent requirements. • (2) First, 5 μL of the test compound, 2.5 μL of the His-CD80 fusion protein and 2.5 μL of the […] fusion protein solution were well mixed and incubated at room temperature for 15 min; then, 5 μL of the anti-His-XL665 antibody and 5 μL of the anti-hFc-Eu^3+antibody were added to the system and further incubated for 3 h before test. • (3) During the test reaction, control groups were set, including a 0% inhibitory positive control without adding the test compound and a 100% inhibitory negative control without adding the CD80 protein. All tests were conducted by use of multiple holes. • (4) The fluorescence detector Tecan (Spark 10M) was used to detect the fluorescence signal of each hole. The excitation wavelength was 320 nm, and the emission wavelengths for detection were 620 nm and 665 nm, respectively. The strength of CD80/PD-L1 binding refers to a fluorescence signal ratio Em665/Em620. • (5) Calculation formula of binding inhibition rate of test compound: Inhibition rate (%)=[1−(fluorescence signal ratio of detected hole−fluorescence signal ratio of 100% inhibition negative control)]/(fluorescence signal ratio of 0% inhibition positive control — fluorescence signal ratio of 100% inhibition negative control)×100%. The 50% inhibition concentration (IC50) was calculated after the CD80/PD-L1 binding inhibition rates of the test compound with different concentration gradients were calculated respectively.
For orientation: Time-resolved FRET reads energy transfer from a long-lived donor to a nearby acceptor.

A short description of data set [2]: Single-dosing pharmacokinetics test. Type of data set: in vivo, B-hPD-1/hPD-L1 female mice. As to conditions: female, B-hPD-1/hPD-L1 (humanized), mouse, po; humanized mice, single dose of 100 mg/kg by gavage, plasma. How it is done: 24 6-week old B-hPD-1/hPD-L1 female mice (purchased from Biocytogen (Jiangsu) Gene Biotechnology Co., Ltd.) were taken and the test compound was dissolved in a solvent containing 5% DMSO, 60% PEG400 and 35% purified water. The compound I-6 and three control molecules, Example 17, Compound 14 (INCB086550) and Example 180 were dosed. The compound was administered by gavage in a single dose of 100 mg/kg and blood was collected through fundus vein plexus after administration. The time points for blood collection were 15 min, 30 min, 1 h, 2 h, 4 h, 8 h, 24 h, 32 h and 48 h. About 0.1 mL of blood was collected and centrifuged in a centrifuge tube (heparin sodium anticoagulation) at 5000 rpm for 5 min to separate plasma, and then frozen at −20° C. for testing. After the plasma sample was treated, the concentration of the compound in the plasma was determined by liquid chromatography-mass spectrometry (LC-MS/MS). The pharmacokinetic parameters were calculated using Phoenix WinNonlin 7.0 based on the average blood concentration data at different time points.

The nature of data set [3]: Repeated-dosing pharmacokinetics test. Format: in vivo, B-hPD-1/hPD-L1 humanized female mice. As to conditions: female, B-hPD-1/hPD-L1 (humanized), mouse, po; humanized mice, 50 mg/kg by gavage once a day for 12 days, plasma on day 12. How it is done:
24 6-week old B-hPD-1/hPD-L1 humanized female mice (purchased from Biocytogen (Jiangsu) Gene Biotechnology Co., Ltd.) were taken and the test compound was dissolved in a solvent containing 5% DMSO, 60% PEG400 and 35% purified water. The compound I-6 and three control molecules, Example 17, Compound 14 (INCB086550) and the aforementioned Example 180 were dosed. The compound was administered by gavage once a day in a dose of 50 mg/kg for 12 consecutive days, and blood was alternately collected through fundus vein plexus on day 12 of administration. The time points for blood collection were 15 min, 30 min, 1 h, 2 h, 4 h, 8 h, 24 h, 32 h and 48 h. About 0.1 mL of blood was collected and centrifuged in a centrifuge tube (heparin sodium for anticoagulation) at 5000 rpm for 5 min to separate plasma, and then frozen at −20° C. for testing. The concentration of the compound in the plasma was determined by liquid chromatography-mass spectrometry (LC-MS/MS). The pharmacokinetic parameters were calculated using Phoenix WinNonlin 7.0 based on the average blood concentration data at different time points.

CD80/PD-L1 binding (recombinant human His-CD80 protein and PD-L1-Fc fusion protein), sequence (Q9NZQ7 19-239): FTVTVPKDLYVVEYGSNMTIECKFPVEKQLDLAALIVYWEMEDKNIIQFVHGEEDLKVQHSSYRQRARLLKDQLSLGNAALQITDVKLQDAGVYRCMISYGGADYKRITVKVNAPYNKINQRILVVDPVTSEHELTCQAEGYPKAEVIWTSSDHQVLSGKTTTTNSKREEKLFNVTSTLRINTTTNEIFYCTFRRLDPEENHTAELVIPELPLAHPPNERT

As to `COCC12CCC(CCN3CCc4c(nc(C(=O)Nc5cccc(-c6cccc(NC(=O)c7nc8c(n7C)CCN(CCC79CCC(C(=O)O)(CC7)C9)C8)c6Cl)c5Cl)n4C)C3)(CC1)C2` [Compound I-6, 4-(2-(2-((2,2′-dichloro-3′-(5-(2-(4-(methoxymethyl)bicyclo[2.2.1]heptan-1-yl)ethyl)-1-methyl-4,5,6,7-tetrahydro-1H-imidazo[4,5-c]pyridine-2-carboxamido)-[1, 1′-biphenyl]-3-yl)carbamoyl)-1-methyl-1,4,6,7-tetrahydro-5H-imidazo[4,5-c]pyridin-5-yl)ethyl)bicyclo[2.2.1]heptane-1-carboxylic acid], the IC50 in data set [1] stood at 0.86 nM. In data set [2], this molecule had an AUC(0-t) of 207000 ng·h/mL, a mean residence time MRT of 10.9 h and a half-life of 9.3 h. In data set [3], this molecule gave an AUC(0-t) of 151000 ng·h/mL, an MRT of 12 h and a half-life of 9.4 h.

With `Cn1c(C(=O)Nc2cccc(-c3cccc(NC(=O)c4nc5c(n4C)CCN(CC46CCC(C(=O)O)(CC4)C6)C5)c3Cl)c2Cl)nc2c1CCN(CCO)C2` [Example 180], the IC50 in data set [1] was 5.53 nM. In data set [2], this molecule showed an AUC(0-t) of 45400 ng·h/mL, an MRT of 4.7 h and a half-life of 3.5 h. In data set [3], this molecule showed an AUC(0-t) of 27800 ng·h/mL, an MRT of 4.2 h and a half-life of 3.3 h.

For orientation: AUC(0-t) means exposure summed from dosing to a finite time, without extrapolation to infinity. What is called MRT is a mean duration of stay, worked out from the concentration-time curve. The term half-life denotes the time needed for the level to fall by half in the phase considered. High values mean slow decline, low ones rapid decline.

The values are drawn from US20230365590A1, “BIPHENYL COMPOUND AS IMMUNOMODULATOR, PREPARATION METHOD THEREFOR AND APPLICATION THEREOF” (SHENZHEN CHIPSCREEN BIOSCIENCES CO., LTD., priority 2020, published 2023).
